Results from ChEMBL document CHEMBL5303573, “Mapping human microbiome drug metabolism by gut bacteria and their genes” (Nature, 2019).

Tests used:
[1] = The drug is tested on Ruminococcus lactaris strain: ATCC29176 for biotransformation. The drug concentrations were measured before and after a 12-h incubation by liquid-chromatography-coupled mass spectrometry (LC–MS); conditions: 2 µM
[2] = bacteroides intestinalis, 12 h, 2 µM
Description: The drug is tested on Bacteroides intestinalis strain: DSM17393 for biotransformation. The drug concentrations were measured before and after a 12-h incubation by liquid-chromatography-coupled mass spectrometry (LC–MS)

[3] = bacteroides thetaiotaomicron, 12 h, 2 µM
Description: The drug is tested on Bacteroides thetaiotaomicron strain: 7330 for biotransformation. The drug concentrations were measured before and after a 12-h incubation by liquid-chromatography-coupled mass spectrometry (LC–MS)

[4] = The drug is tested on Enterobacter cancerogenus strain: ATCC35316 for biotransformation. The drug concentrations were measured before and after a 12-h incubation by liquid-chromatography-coupled mass spectrometry (LC–MS); conditions: 2 µM
[5] = The drug is tested on Eubacterium ventriosum strain: ATCC27560 for biotransformation. The drug concentrations were measured before and after a 12-h incubation by liquid-chromatography-coupled mass spectrometry (LC–MS); assay type: ADME; parameters: dose 2 uM, timepoint 0 vs 12 hours; conditions: 2 µM
[6] = The drug is tested on Coprococcus comes strain: ATCC27758 for biotransformation. The drug concentrations were measured before and after a 12-h incubation by liquid-chromatography-coupled mass spectrometry (LC–MS); assay type: ADME; parameters: dose 2 uM, timepoint 0 vs 12 hours; conditions: 2 µM
[7] = The drug is tested on Ruminococcus gnavus strain: ATCC29149 for biotransformation. The drug concentrations were measured before and after a 12-h incubation by liquid-chromatography-coupled mass spectrometry (LC–MS); conditions: mediterraneibacter gnavus, 2 µM
[8] = enterocloster bolteae, 12 h, 2 µM
Description: The drug is tested on Clostridium bolteae strain: ATCCBAA-613 for biotransformation. The drug concentrations were measured before and after a 12-h incubation by liquid-chromatography-coupled mass spectrometry (LC–MS)

[9] = The drug is tested on Providencia rettgeri strain: DSM1131 for biotransformation. The drug concentrations were measured before and after a 12-h incubation by liquid-chromatography-coupled mass spectrometry (LC–MS); assay type: ADME; parameters: dose 2 uM, timepoint 0 vs 12 hours; conditions: 2 µM
[10] = bacteroides fragilis, 12 h, 2 µM
Description: The drug is tested on Bacteroides fragilis strain: 3397 (T10) for biotransformation. The drug concentrations were measured before and after a 12-h incubation by liquid-chromatography-coupled mass spectrometry (LC–MS)

[11] = The drug is tested on Edwardsiella tarda strain: ATCC23685 for biotransformation. The drug concentrations were measured before and after a 12-h incubation by liquid-chromatography-coupled mass spectrometry (LC–MS); conditions: 2 µM
[12] = The drug is tested on Clostridium symbiosum strain: ATCC14940 for biotransformation. The drug concentrations were measured before and after a 12-h incubation by liquid-chromatography-coupled mass spectrometry (LC–MS); conditions: 2 µM
[13] = The drug is tested on Clostridium ramosum strain: DSM1402 for biotransformation. The drug concentrations were measured before and after a 12-h incubation by liquid-chromatography-coupled mass spectrometry (LC–MS); conditions: thomasclavelia ramosa, 2 µM
[14] = parabacteroides johnsonii, 12 h, 2 µM
Description: The drug is tested on Parabacteroides johnsonii strain: DSM18315 for biotransformation. The drug concentrations were measured before and after a 12-h incubation by liquid-chromatography-coupled mass spectrometry (LC–MS)

[15] = The drug is tested on Subdoligranulum variabile strain: DSM15176 for biotransformation. The drug concentrations were measured before and after a 12-h incubation by liquid-chromatography-coupled mass spectrometry (LC–MS); conditions: 2 µM
[16] = The drug is tested on Bacteroides caccae strain: ATCC43185 for biotransformation. The drug concentrations were measured before and after a 12-h incubation by liquid-chromatography-coupled mass spectrometry (LC–MS); conditions: 2 µM
[17] = The drug is tested on Escherichia coli strain: BW25113 for biotransformation. The drug concentrations were measured before and after a 12-h incubation by liquid-chromatography-coupled mass spectrometry (LC–MS); conditions: 2 µM
[18] = The drug is tested on Bacteroides pectinophilus strain: ATCC43243 for biotransformation. The drug concentrations were measured before and after a 12-h incubation by liquid-chromatography-coupled mass spectrometry (LC–MS); conditions: 2 µM
[19] = The drug is tested on Bacteroides fragilis strain: ATCC43859 for biotransformation. The drug concentrations were measured before and after a 12-h incubation by liquid-chromatography-coupled mass spectrometry (LC–MS); conditions: 2 µM

Measured: Bacterial Biotransformation

CCN(CC)C(=O)C1(c2ccccc2)CC1CN (centres undefined)
Compound NOT metabolized: all assays above

CN(C)CC(c1ccc(O)cc1)C1(O)CCCCC1.O=C(O)CCC(=O)O (centres undefined) [DESVENLAFAXINE SUCCINATE]
not listed: [3] | [14]
Compound NOT metabolized: all other assays above

CC(C)N(CCC(C(N)=O)(c1ccccc1)c1ccccn1)C(C)C.O=P(O)(O)O (centres undefined) [DISOPYRAMIDE PHOSPHATE]
not listed: [3] | [13] | [17]
Compound NOT metabolized: all other assays above

CN1CCC(=C2c3ccccc3CC(=O)c3sccc32)CC1.O=C(O)/C=C/C(=O)O [KETOTIFEN FUMARATE]
not listed: [8] | [17]
Compound NOT metabolized: all other assays above

CC(CCc1ccccc1)NCC(O)c1ccc(O)c(C(N)=O)c1 (centres undefined) [LABETALOL]
Compound NOT metabolized: all assays above

C=CCN1CC[C@]23c4c5ccc(O)c4O[C@H]2C(=O)CC[C@@]3(O)[C@H]1C5 [NALOXONE]
Compound metabolized: [3] | [10] | [14] | [19]
not listed: [2] | [12] | [16]
Compound NOT metabolized: all other assays above

CN1CCOC(c2ccccc2)c2ccccc2C1 (centres undefined) [NEFOPAM]
not listed: [13] | [17]
Compound NOT metabolized: all other assays above

COc1ccc(Cc2nccc3cc(OC)c(OC)cc23)cc1OC [PAPAVERINE]
not listed: [14]
Compound NOT metabolized: all other assays above
